Read-outs that look alike come from different tables or passages of the source.
Columns and labels:
Ba/F3 cells GFP+IL3 = test: MTT viability assay; assay type: cell-based; conditions: Mus musculus, BaF3; Ba/F3 GFP+IL3; MTT, 72 hours; read-out: IC50 viability
Protocol: (§1) Drug treatments were carried out for 72 hours. Details are provided in the Supplemental Methods.

[1] = tested on: Ba/F3 cells expressing FLT3 D835H; test: MTT viability assay; assay type: cell-based; conditions: Mus musculus, BaF3; Ba/F3 FLT3 D835H; MTT, 72 hours; read-out: IC50 viability
Protocol: as §1

[2] = tested on: Ba/F3 cells expressing FLT3 D835Y; test: MTT viability assay; assay type: cell-based; conditions: Mus musculus, BaF3; Ba/F3 FLT3 D835Y; MTT, 72 hours; read-out: IC50 viability
Protocol: as §1

[3] = tested on: Ba/F3 cells expressing FLT3 ITD/D835H; test: MTT viability assay; assay type: cell-based; conditions: Mus musculus, BaF3; Ba/F3 FLT3 ITD/D835H; MTT, 72 hours; read-out: IC50 viability
Protocol: as §1

[4] = tested on: Ba/F3 cells expressing FLT3 ITD/D835Y; test: MTT viability assay; assay type: cell-based; conditions: Mus musculus, BaF3; Ba/F3 FLT3 ITD/D835Y; MTT, 72 hours; read-out: IC50 viability
Protocol: as §1

[5] = tested on: Ba/F3 cells expressing FLT3-ITD/F691L; test: MTT viability assay; assay type: cell-based; conditions: Mus musculus, BaF3, 72 hours
Protocol: as §1

[6] = tested on: Ba/F3 cells expressing FLT3-ITD; test: MTT viability assay; assay type: cell-based; conditions: Mus musculus, BaF3; Ba/F3 FLT3 ITD; MTT, 72 hours; read-out: IC50 viability
Protocol: as §1

MOLM13 cells [7] = test: MTT viability assay; assay type: cell-based; conditions: Homo sapiens, MOLM-13; MOLM13, FLT3-ITD; MTT, 72 hours; read-out: IC50 viability
Protocol: as §1

MOLM13-RES cells = test: MTT viability assay; assay type: cell-based; conditions: Homo sapiens; MOLM13-RES, FLT3-ITD/D835Y; MTT, 72 hours; read-out: IC50 viability
Protocol: as §1

MV4-11 cells [8] = test: MTT viability assay; assay type: cell-based; conditions: Homo sapiens; MV4-11, FLT3-ITD; MTT, 72 hours; read-out: IC50 viability
Protocol: as §1

[9] = tested on: primary FLT3-ITD/MLL-PTD murine leukemia cells; test: CellTiterGlo viability assay, ex vivo; assay type: cell-based; conditions: Mus musculus, 72 hours
Protocol: as §1
(§2) Cell viability of primary samples […]
(§3) For murine or human primary AML cells, 100,000 cells/well were plated in a 96-well plate and treated with increasing concentrations of drug. Cell viability, via trypan blue, was measured every 24 hours. If the viability fell below 50% or at 72 hours of treatment, whichever came earlier, cell viability of each plate was measured via CellTiter-Glo. Primary human AML cells were obtained from the OSUCCC Leukemia Tissue Bank Shared […]

[10] = tested on: human primary AML samples; test: CellTiterGlo viability assay, ex vivo; assay type: cell-based
Protocol: as §1, §2, §3
Primary AML samples were analyzed by targeted gene sequencing of 80 genes, as previously described (1). Samples were pooled and analyzed on a MiSeq system using the Illuminia MiSeq Reagent Kit v3. Ill umina Isis Banded Smith Waterman aligner and hg19 genome were used to align the sequences. Single nucleotide variant (SNV) and indel calling were performed using MuTect and Varscan2. A variant allele fraction (VAF) cut-off of 0.10 was set for reporting mutations. SNV that are reported as pathogenic SNP were considered mutations.
All other SNV needed to be absent from 1000 Genome database, dsSNP137 or dsSNP142. Visual inspection of all variants was carried out using Integrative Genomics Viewer (Broad Institute) . […]

MOLM13 cells [11] = test: MOLM13 viability ± coculture with HS5-GFP MSCs (MTT); assay type: cell-based; conditions: Homo sapiens, read-out: IC50 viability
Protocol: Drug treatments were carried out for 72 hours. Details are provided in the Supplemental Methods. […]
HS5-GFP human bone marrow stromal cells were plated and cultured for 72 hours to near confluence.
MOLM13 cells were then seeded onto HS5-GFP cells to establish a co-culture. Twenty-four hours later, cells
were treated with increasing concentrations of drug for an additional 72 hours. MOLM13 and HS5-GFP cells
were then separated and MTT assay s were performed for cell viability assessment of each cell population. […]

MV4-11 cells [12] = test: CFU assay with IL-3, GM-CSF or FGF2; assay type: cell-based, human; conditions: 7-day MV4-11 CFU assay
Protocol: For human primary CFU assays, cells were cultured in MethoCult H4035 Optimum without EPO (Stemcell Technologies). For mouse primary CFU assays, cells were directly cultured in MethoCult M3231 (Stemcell Technologies) supplemented with 45 ng/mL of murine IL-6 (mIL-6), mIL-3, and mSCF. Both human and mouse primary cells 10,000 cells were plated in duplicate for each drug concentration. For cell line CFU assays, MV4-11 cells were treated with drugs in the presence of 20 ng/mL IL-3, GM-CSF, or FGF2. Cells were plated in MethoCult H4230 (Stemcell Technologies) in duplicates at 250 cells/plate. Plates were placed in a 37°C incubator for 7 or 14 days for human cell lines and for mouse or human primary cells, respectively. Colonies were identified as clusters containing 40 or more cells. For CFU assays using human primary CD34^+ cells, umbilical cord blood was obtained from the OSU Comprehensive Cancer Center (CCC) Leukemia Tissue Bank Shared Resource, and mononuclear cells were isolated by using density gradient centrifugation. CD34^+ cells were purified using the CD34 UltraPure MicroBead Kit (Miltenyi Biotec) according to the manufacturer’s instructions. CFU assay with CD34^+ cells was performed as described above, and the total number of colonies were counted after 7–10 days.

[13] = sample 003: FLT3 wild-type, NRAS, EZH2, JAK3, IDH2, BCOR, DNMT3A, read-out: IC50 viability
[14] = sample 036: FLT3 wild-type, NRAS, IDH2, NPM1, DNMT3A, read-out: IC50 viability
[15] = sample 142: FLT3-ITD, NPM1, read-out: IC50 viability
[16] = sample 240: FLT3-ITD, IDH2, NPM1, read-out: IC50 viability
[17] = sample 370: FLT3-ITD, IDH1, NPM1, SMARCA2, read-out: IC50 viability
[18] = sample 398: FLT3 wild-type, NRAS, CCND2, ATM, IDH2, STAG2, read-out: IC50 viability
[19] = sample 0762 (762): FLT3-ITD, NRAS, KRAS, DNMT3A, NPM1, D835E, read-out: IC50 viability
[20] = sample 774: FLT3-ITD, CBL, IDH1, NPM1, read-out: IC50 viability
[21] = sample 1069: FLT3-ITD, SRSF2, IDH2, DNMT3A, read-out: IC50 viability
[22] = sample 1355: FLT3-ITD, NPM1, IDH2, read-out: IC50 viability
[23] = sample 2656: FLT3-ITD, IDH2, NPM1, read-out: IC50 viability
[24] = samples with RAS (NRAS, KRAS, PTPN11) mutations, read-out: IC50, range
[25] = MOLM-13, MOLM13 + HS5-GFP co-culture
[26] = MOLM-13, MOLM13 alone (co-culture experiment)

CN1CCN(Cc2ccc(Nc3ncc(Cl)c(Nc4ccccc4S(=O)(=O)N(C)C)n3)cc2)CC1 [TP-0903]
IC50 (Ba/F3 cells GFP+IL3): 47 nM
IC50 [1]: 16 nM
IC50 [2]: 22 nM
IC50 [3]: 16 nM
IC50 [4]: 20 nM
IC50 [5]: 16 nM
IC50 [6]: 15 nM
IC50 (MOLM13 cells [7]): 21 nM
IC50 (MOLM13-RES cells): 16 nM
IC50 (MV4-11 cells [8]): 17 nM
IC50 [9]: 400 nM
IC50 ([10]; all human primary samples, read-out: IC50, median): 35 nM
IC50 ([10]; all human primary samples, read-out: IC50, range): 21 to 67 nM
IC50 ([10]; all human primary samples, read-out: IC50 values, all samples): < 100 nM
IC50 [10, 13]: 58 nM
IC50 [10, 14]: 21 nM
IC50 [10, 15]: 35 nM
IC50 [10, 16]: 26.2 nM
IC50 [10, 17]: 26.6 nM
IC50 [10, 18]: 60 nM
IC50 [10, 19]: 38 nM
IC50 [10, 20]: 45 nM
IC50 [10, 21]: 67 nM
IC50 [10, 22]: 26.8 nM
IC50 [10, 23]: 33 nM
IC50 [10, 24]: 21 to 60 nM
IC50 (MOLM13 cells [11]; [25]): 53 nM
IC50 (MOLM13 cells [11]; [26]): 31 nM
Colony formation with IL-3, GM-CSF, or FGF2 (MV4-11 cells [12]): significantly inhibited colony formation

CCc1nc(C(N)=O)c(Nc2ccc(N3CCC(N4CCN(C)CC4)CC3)c(OC)c2)nc1NC1CCOCC1 [Gilteritinib, gilteritinib]
IC50 (Ba/F3 cells GFP+IL3): 972 nM
IC50 [1]: 0.5 nM
IC50 [2]: 22 nM
IC50 [3]: 20 nM
IC50 [4]: 55 nM
IC50 [5]: 193 nM
IC50 [6]: 5.4 nM
IC50 (MOLM13 cells [7]): 17 nM
IC50 (MOLM13-RES cells): 11 nM
IC50 (MV4-11 cells [8]): 8 nM
IC50 [9]: 1550 nM
IC50 ([10]; AML samples with FLT3-ITD mutations, read-out: IC50, median): 263 nM
IC50 ([10]; AML samples with FLT3-ITD mutations, read-out: IC50, range): 93 to 1310 nM
IC50 [10, 13]: 576 nM
IC50 [10, 14]: 731 nM
IC50 [10, 15]: 334 nM
IC50 [10, 16]: 92.5 nM
IC50 [10, 17]: 239 nM
IC50 [10, 18]: 260 nM
IC50 [10, 19]: 1310 nM
IC50 [10, 20]: 161 nM
IC50 [10, 21]: 286 nM
IC50 [10, 22]: 105 nM
IC50 [10, 23]: 633 nM
IC50 [10, 24]: 260 to 731 nM
IC50 (MOLM13 cells [11]; [25]): 84 nM
IC50 (MOLM13 cells [11]; [26]): 17 nM
Colony formation with IL-3, GM-CSF, or FGF2 (MV4-11 cells [12]): partially rescued

Reference: paper PMC7714403 (JCI Insight, 2020)
